# Target: S. aureus (SAU) GyrB ATPase (Staphylococcus aureus, UniProt P0A0K8)
# Assay: S. aureus GyrB ATPase inhibition, ammonium molybdate/malachite green phosphate detection assay
# Assay type: biochemical
# Details: 10 compound concentrations; 500 μM ATP
# Procedure: Compounds were tested for inhibition of GyrB ATPase activity using an ammonium molybdate/malachite green-based phosphate detection assay (Lanzetta, P. A., L. J. Alvarez, P. S. Reinach, and O. A. Candia, 1979, 100: 95-97). Assays were performed in multiwell plates in 100 μl reactions containing: 50 mM Hepes buffer pH 7.5, 75 mM ammonium acetate, 8.0 mM magnesium chloride, 1.0 mM ethylenediaminetetraacetic acid, 5% glycerol, 2 mM 1,4-Dithio-DL-threitol, 400 nM bovine serum albumin, 5 μg/ml sheared salmon sperm DNA, 1.25 nM E. coli GyrA, 1.25 nM S. aureus GyrB, 500 μM ATP, and compound in dimethylsulfoxide. Reactions were quenched with 150 μl of ammonium molybdate/malachite green detection reagent containing 1.2 mM malachite green hydrochloride, 8.5 mM ammonium molybdate tetrahydrate, and 1 M hydrochloric acid. Plates were read in an absorbance plate reader at 650 nm and percent inhibition values were calculated using dimethylsulfoxide (2%)-containing reactions as 0% inhibition and novobiocin-containing (2 μM) reactions as 100% inhibition controls. Compound potency was based on IC50 measurements determined from reactions performed in the presence of 10 different compound concentrations.
# S. aureus (SAU) GyrB ATPase, sequence (P0A0K8 whole entry): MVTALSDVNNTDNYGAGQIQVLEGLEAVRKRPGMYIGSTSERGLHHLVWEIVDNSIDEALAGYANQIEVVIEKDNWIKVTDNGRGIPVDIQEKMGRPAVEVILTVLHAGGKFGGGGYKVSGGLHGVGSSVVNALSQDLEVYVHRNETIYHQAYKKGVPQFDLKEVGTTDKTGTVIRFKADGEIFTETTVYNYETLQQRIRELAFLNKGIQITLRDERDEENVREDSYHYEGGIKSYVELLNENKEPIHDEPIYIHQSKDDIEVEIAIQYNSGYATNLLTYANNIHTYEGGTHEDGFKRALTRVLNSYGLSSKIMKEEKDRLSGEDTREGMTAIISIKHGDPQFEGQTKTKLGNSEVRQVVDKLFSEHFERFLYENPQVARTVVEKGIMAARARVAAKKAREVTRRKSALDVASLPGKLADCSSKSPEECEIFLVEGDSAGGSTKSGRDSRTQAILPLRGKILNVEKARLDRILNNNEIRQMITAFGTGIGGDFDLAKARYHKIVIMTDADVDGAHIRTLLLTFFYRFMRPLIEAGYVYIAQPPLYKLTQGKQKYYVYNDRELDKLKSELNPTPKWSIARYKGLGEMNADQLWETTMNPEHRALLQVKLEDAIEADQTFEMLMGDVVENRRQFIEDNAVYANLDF
# S. aureus (SAU) GyrB ATPase, sequence (P0AES4 whole entry, further chain): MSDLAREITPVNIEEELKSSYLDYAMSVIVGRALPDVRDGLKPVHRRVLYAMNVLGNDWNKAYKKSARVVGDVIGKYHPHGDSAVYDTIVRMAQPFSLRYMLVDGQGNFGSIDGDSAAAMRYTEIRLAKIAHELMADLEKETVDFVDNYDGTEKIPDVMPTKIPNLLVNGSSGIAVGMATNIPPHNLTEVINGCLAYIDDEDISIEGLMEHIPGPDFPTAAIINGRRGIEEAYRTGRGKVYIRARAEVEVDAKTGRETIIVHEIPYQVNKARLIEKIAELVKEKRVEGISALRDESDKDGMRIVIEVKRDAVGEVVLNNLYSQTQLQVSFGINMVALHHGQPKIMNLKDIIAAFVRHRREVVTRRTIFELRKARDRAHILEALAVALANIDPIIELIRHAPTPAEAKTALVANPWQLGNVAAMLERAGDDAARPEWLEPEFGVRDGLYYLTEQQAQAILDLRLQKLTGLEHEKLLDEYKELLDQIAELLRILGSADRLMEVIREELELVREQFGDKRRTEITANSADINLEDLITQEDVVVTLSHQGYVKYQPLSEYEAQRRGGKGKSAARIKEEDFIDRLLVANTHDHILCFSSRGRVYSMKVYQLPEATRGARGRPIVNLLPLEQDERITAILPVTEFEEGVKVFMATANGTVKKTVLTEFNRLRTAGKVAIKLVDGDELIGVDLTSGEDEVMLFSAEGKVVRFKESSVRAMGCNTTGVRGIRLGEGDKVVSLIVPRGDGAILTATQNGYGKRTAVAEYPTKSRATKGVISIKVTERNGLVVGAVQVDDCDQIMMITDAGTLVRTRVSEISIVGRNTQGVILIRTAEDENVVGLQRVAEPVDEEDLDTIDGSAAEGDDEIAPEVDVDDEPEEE
row,SMILES,IC50
1,"CCNC(=O)Nc1ccc(-c2ncc(C(=O)O)s2)cn1 [Example 17, 2-(6-{[(ethylamino)carbonyl]amino}pyridin-3-yl)-1,3-thiazole-5-carboxylic acid]",266 nM
2,"CCNC(=O)Nc1ccc(-c2cncc(C(=O)O)c2)cn1 [Example 19, 6′-{[(Ethylamino)carbonyl]amino}-3,3′-bipyridine-5-carboxylic acid]",846 nM

# Same assay, conditions: compound concentration 5 μM (values marked *)
row,SMILES,inhibition at 5 µM
1,"CCNC(=O)Nc1ncc(-c2ncc(C(=O)OC)s2)cn1 [Example 14, Methyl 2-(2-{[(ethylamino)carbonyl]amino}pyrimidin-5-yl)-1,3-thiazole-5-carboxylate]",99.5%

# Same assay, conditions: read-out: S. aureus (SAU) GyrB ATPase % Inhibition, compound concentration 12.5 μM
row,SMILES,inhibition at 12.5 µM
1,"CCNC(=O)Nc1nc(-c2cccc(C(=O)OC)c2)cs1 [Example 134, methyl 3-(2-{[(ethylamino)carbonyl]amino}-1,3-thiazol-4-yl)benzoate]",7.09%
2,"CCNC(=O)Nc1nc(-c2ccc(C(=O)OC)cc2)cs1 [Example 41, Methyl 4-(2-{[(ethylamino)carbonyl]amino}-1,3-thiazol-4-yl)benzoate]",26.9%
3,"CCNC(=O)Nc1ccc(-c2ccc3nc(C(=O)OC)cn3c2)cn1 [Example 12, Methyl 6-(6-{[(ethylamino)carbonyl]amino}pyridin-3-yl)imidazo[1,2-a]pyridine-2-carboxylate]",92.6%
4,"CCNC(=O)Nc1cc(-c2nc(C(F)(F)F)cs2)c(-c2cncc(C(=O)NC3CC3)c2)cn1 [Example 126, N-Cyclopropyl-6′-{[(ethylamino)carbonyl]amino}-4′-[4-(trifluoromethyl)-1,3-thiazol-2-yl]-3,3′-bipyridine-5-carboxamide]",96.2%
5,"CCCCNC(=O)c1nc(-c2cnc(NC(=O)NCC)cc2-c2nc(CC)cs2)sc1C(=O)N(C)C [Example 162, N^4-butyl-2-[6-{[(ethylamino)carbonyl]amino}-4-(4-ethyl-1,3-thiazol-2-yl)pyridin-3-yl]-N~5~,N~5~-dimethyl-1,3-thiazole-4,5-dicarboxamide]",101%
6,"CCNC(=O)Nc1cc(-c2nc(C(F)(F)F)cs2)c(-c2ncc(C(=O)O)s2)cn1 [Example 102, 2-{6-{[(Ethylamino)carbonyl]amino}-4-[4-(trifluoromethyl)-1,3-thiazol-2-yl]pyridin-3-yl}-1,3-thiazole-5-carboxylic acid]",98.2%
7,"CCNC(=O)Nc1ccc(-c2nc(C(=O)NCCOC)c(C(N)=O)s2)cn1 [Example 116, 2-(6-{[(Ethylamino)carbonyl]amino}pyridin-3-yl)-N^4-(2-methoxyethyl)-1,3-thiazole-4,5-dicarboxamide]",98.7%
8,"CCNC(=O)Nc1cc(-c2nc(C(F)(F)F)cs2)c(-c2cncc(C(=O)N[C@@H](C)COC)c2)cn1 [Example 124, 6′-{[(Ethylamino)carbonyl]amino}-N-[(1S)-2-methoxy-1-methylethyl]-4′-[4-(trifluoromethyl)-1,3-thiazol-2-yl]-3,3′-bipyridine-5-carboxamide]",95.1%
9,"CCNC(=O)Nc1ccc(-c2nc(C(C)=O)c(C(=O)O)s2)cn1 [Example 27, 4-Acetyl-2-(6-{[(ethylamino)carbonyl]amino}pyridin-3-yl)-1,3-thiazole-5-carboxylic acid]",99.1%
10,"CCNC(=O)Nc1ccc(-c2nc(-c3nccn3CCOC)c(C(=O)O)s2)cn1 [Example 89, 2-(6-{[(ethylamino)carbonyl]amino}pyridin-3-yl)-4-[1-(2-methoxyethyl)-1H-imidazol-2-yl]-1,3-thiazole-5-carboxylic acid]",86.1%
11,"CCNC(=O)Nc1cccc(-c2cccc(C(N)=O)c2)n1 [Example 151, 3-(6-{[(ethylamino)carbonyl]amino}pyridin-2-yl)benzamide]",97.7%
12,"CCNC(=O)Nc1ccc(-c2cccc3nc(C(=O)OCC)cn23)cn1 [Example 136, ethyl 5-(6-{[(ethylamino)carbonyl]amino}pyridin-3-yl)imidazo[1,2-a]pyridine-2-carboxylate]",61%
13,"CCNC(=O)Nc1ccc(-c2ccc3nc(C)c(C(=O)OCC)n3c2)cn1 [Example 139, ethyl 6-(6-{[(ethylamino)carbonyl]amino}pyridin-3-yl)-2-methylimidazo[1,2-a]pyridine-3-carboxylate]",96.7%
14,"CCNC(=O)Nc1cc(-c2nc(C(F)(F)F)cs2)c(-c2cncc(C(=O)NC)c2)cn1 [Example 122, 6′-{[(Ethylamino)carbonyl]amino}-N-methyl-4′-[4-(trifluoromethyl)-1,3-thiazol-2-yl]-3,3′-bipyridine-5-carboxamide]",85.8%
15,"CCNC(=O)Nc1ccc(-c2ncc(C(=O)O)s2)cn1 [Example 17, 2-(6-{[(ethylamino)carbonyl]amino}pyridin-3-yl)-1,3-thiazole-5-carboxylic acid]",99.1%
16,"CCNC(=O)Nc1ccc(-c2nc(C(=O)NC(C)(C)C)c(C(N)=O)s2)cn1 [Example 111, N^4-(tert-Butyl)-2-(6-{[(ethylamino)carbonyl]amino}pyridin-3-yl)-1,3-thiazole-4,5-dicarboxamide]",101%
17,"CCCCNC(=O)c1nc(-c2cnc(NC(=O)NCC)cc2-c2ccccc2)sc1C(=O)O [Example 98, 4-[(Butylamino)carbonyl]-2-(6-{[(ethylamino)carbonyl]amino}-4-phenylpyridin-3-yl)-1,3-thiazole-5-carboxylic acid]",99.3%
18,"CCNC(=O)Nc1ccc(-c2cncc(C(=O)O)c2)cn1 [Example 19, 6′-{[(Ethylamino)carbonyl]amino}-3,3′-bipyridine-5-carboxylic acid]",95.1%
19,"CCNC(=O)Nc1ccc(-c2ccc(C(=O)O)cc2)cn1 [Example 23, 4-(6-{[(Ethylamino)carbonyl]amino}pyridin-3-yl)benzoic acid]",92.5%
20,"CCNC(=O)Nc1ccc(-c2nc(C(=O)N[C@@H](C)COC)c(C(=O)N(C)C)s2)cn1 [Example 118, 2-(6-{[(Ethylamino)carbonyl]amino}pyridin-3-yl)-N^4-[(1S)-2-methoxy-1-methylethyl]-N^5,N^5-dimethyl-1,3-thiazole-4,5-dicarboxamide]",102%
21,"CCNC(=O)Nc1nc(-c2cccc(C(=O)O)c2)cs1 [Example 142, 3-(2-{[(ethylamino)carbonyl]amino}-1,3-thiazol-4-yl)benzoic acid]",0.68%
22,"CCNC(=O)Nc1ccc(-c2nc(-c3nccn3C)c(C(=O)N(C)C)s2)cn1 [Example 112, 2-(6-{[(Ethylamino)carbonyl]amino}pyridin-3-yl)-N,N-dimethyl-4-(1-methyl-1H-imidazol-2-yl)-1,3-thiazole-5-carboxamide]",99.9%
23,"CCNC(=O)Nc1ccc(-c2nc3cccc(C(N)=O)c3s2)cn1 [Example 40, 2-(6-{[(Ethylamino)carbonyl]amino}pyridin-3-yl)-1,3-benzothiazole-7-carboxamide]",83.7%
24,"CCNC(=O)Nc1ccc(-c2ccc3c(c2)c(=O)c(C(=O)O)cn3CCOC)cn1 [Example 46, 6-(6-(3-Ethylureido)pyridin-3-yl)-1-(2-methoxyethyl)-4-oxo-1,4-dihydroquinoline-3-carboxylic acid]",83.4%
25,"CCNC(=O)Nc1cc(-c2nc(C(C)(C)C)cs2)c(-c2cncc(C(=O)NC)c2)cn1 [Example 164, 4′-(4-tert-butyl-1,3-thiazol-2-yl)-6′-{[(ethylamino)carbonyl]amino}-N-methyl-3,3′-bipyridine-5-carboxamide]",88.1%
26,"CCNC(=O)Nc1cc(-c2nc(CC)cs2)c(-c2cncc(C(=O)N(C)C)c2)cn1 [Example 161, 6′-{[(ethylamino)carbonyl]amino}-4′-(4-ethyl-1,3-thiazol-2-yl)-N,N-dimethyl-3,3′-bipyridine-5-carboxamide]",101%

# Source: US7674801B2 (AstraZeneca AB, priority 2006, dated 2010)
